Experimental data published in patent US6344564B1, “Fungicidal 2-imidazolin-5-ones and 2-imidazoline-5-thiones” (priority 1992, dated 2002).

How the values were obtained:
Phytophthora infestans = assay type: in vivo; settings: concentration at which 75% inhibition of the disease is observed; tomato seedlings (Marmande) sprayed 24 hours before infection with Phytophthora infestans spores; read seven days after infecting vs controls
[1] = tested on: Helminthosporium gramineum; assay: In vitro test on PDA medium, Helminthosporium gramineum; assay type: cell-based; settings: 120 h, dose of 20 ppm in PDA medium, 5 days at 20° C., compared with control dish, read-out: degree of inhibition of the fungus
Pythium vexans = assay: In vitro test on PDA medium, Pythium vexans; settings: Phytopythium vexans, 120 h, read-out: degree of inhibition of the fungus
Procedure: (§1) Each test is carried out in the following way: a nutrient medium consisting of potato, glucose and gelose (PDA medium) is introduced in the supercooled state into a series of Petri dishes (100 ml per dish) after sterilization in an autoclave at 120° C.
(§2) While filling the dishes, an acetone solution of the active material is injected into the supercooled medium to obtain the desired final concentration.
(§3) After 24 hours, each dish is cultured by depositing a fragment of ground mycelium arising from a previous culture of the same fungus.
(§4) For each compound tested, the degree of inhibition of the fungus studied is thus determined for a dose of 20 ppm.

Pythium rostratum = assay: In vitro test on PDA medium, Pythium rostratum; settings: Globisporangium rostratum, 120 h, read-out: degree of inhibition of the fungus
Procedure: as §1, §2, §3, §4

Alternaria alternata = assay: In vitro test on PDA medium, Alternaria alternata; settings: 120 h, read-out: degree of inhibition of the fungus
Procedure: as §1, §2, §3, §4

Plasmopara viticola = assay: In vivo test on Plasmopara viticola (grape downy mildew); settings: in Vitis vinifera, 168 h, read-out: protection
Puccinia recondita = assay: In vivo test on Puccinia recondita (brown rust of wheat); settings: read-out: protection

Row | Compound | melting point [°C] | IC75 (ppm) (Phytophthora infestans) | other results
1 | CSC1=NC2(CCCc3ccccc32)C(=O)N1Nc1ccc(Cl)cc1 (stereo not drawn) | 191 | – | –
2 | CSC1=NC2(CCCc3ccccc32)C(=O)N1Nc1ccccc1C (stereo not drawn) | 174 | – | –
3 | CSC1=NC(c2ccccc2)C(=O)N1Nc1ccccc1 (stereo not drawn) | 190 | – | –
4 | CSC1=NC(C)(c2cccnc2)C(=O)N1Nc1ccccc1 (stereo not drawn) | 156 | – | –
5 | CSC1=NC(C)(Cc2ccccc2)C(=O)N1Nc1ccccc1 (stereo not drawn) | 166 | – | –
6 | CSC1=NC(C)(c2ccccc2)C(=O)N1Nc1ccccc1 (racemic) [501 + 502] | – | 110 ppm | –
7 | COC1=NC(C)(c2ccccc2)C(=O)N1Nc1ccccc1 (racemic) [503 + 504] | – | 330 ppm | –
8 | COC1=NC(C)(c2ccc(Br)cc2)C(=O)N1Nc1ccccc1 (racemic) [505 + 506] | – | >1000 ppm | –
9 | CSC1=NC(C)(c2ccc(F)cc2)C(=O)N1Nc1ccccc1 (racemic) [511 + 512] | – | 110 ppm | –
10 | CSC1=NC(C)(c2ccc(F)cc2)C(=O)N1Nc1cccc(F)c1 (racemic) [513 + 514] | – | 110 ppm | –
11 | COC1=NC(C)(c2ccc(F)cc2)C(=O)N1Nc1ccccc1 (racemic) [525 + 526] | – | 110 ppm | –
12 | COC1=NC(C)(c2ccc(F)cc2)C(=O)N1Nc1cccc(F)c1 (racemic) [527 + 528] | – | 37 ppm | –
13 | COC1=NC(C)(c2ccc(F)cc2)C(=O)N1Nc1ccccc1 (single isomer, unassigned) [Compound 525] | – | 37 ppm | –
14 | COC1=NC(C)(c2ccc(F)cc2)C(=O)N1Nc1ccccc1 (single isomer, unassigned) [Compound 526] | – | >1000 ppm | –
15 | COC1=NC(C)(c2ccc(F)cc2)C(=O)N1Nc1cccc(F)c1 (single isomer, unassigned) [Compound 527] | – | 4-12 ppm | –
16 | CSC1=NC(C)(c2ccccc2)C(=S)N1Nc1ccccc1 (stereo not drawn) [Compound 1, 4-methyl-2-methylthio-4-phenyl-1-phenylamino-2-imidazoline-5-thione] | 127 | – | –
17 | CSC1=NC(C)(c2ccccc2)C(=O)N1Nc1ccccc1 (stereo not drawn) [Compound 9, 4-methyl-2-methylthio-4-phenyl-1-phenylamino-2-imidazolin-5-one] | – | – | inhibition at 20 ppm [1]: 80 to 100%; inhibition at 20 ppm (Pythium vexans): 80 to 100%; inhibition at 20 ppm (Pythium rostratum): 80 to 100%
18 | CSC1=NC(C)(c2ccccc2)C(=O)N1N(C)c1ccccc1 (stereo not drawn) [Compound 22, 4-methyl-1-(N-methyl-N-phenylamino)-2-methylthio-4-phenyl-2-imidazolin-5-one] | 124 | – | inhibition at 20 ppm (Pythium vexans): 80 to 100%; inhibition at 20 ppm (Pythium rostratum): 80 to 100%; inhibition at 20 ppm (Alternaria alternata): 80 to 100%

Row | Compound | melting point [°C] | IC75 (ppm) (Phytophthora infestans) | other results
19 | CSC1=NC(C)(c2ccccc2)C(=O)N1N(C(C)=O)c1ccccc1 (stereo not drawn) [Compound 23, 4-methyl-1-(N-acetyl-N-phenylamino)-2-methylthio-4-phenyl-2-imidazolin-5-one] | 132 | – | –
20 | CSC1=NC(C)(c2ccccc2)C(=O)N1Cc1ccccc1 (stereo not drawn) [Compound 34, 1-benzyl-4-methyl-2-methylthio-4-phenyl-2-imidazolin-5-one] | – | – | inhibition at 20 ppm (Pythium vexans): 80 to 100%; inhibition at 20 ppm (Pythium rostratum): 80 to 100%
21 | CCC1(c2ccccc2)N=C(SC)N(Nc2ccccc2)C1=O (stereo not drawn) [Compound 48, 4-ethyl-2-methylthio-4-phenyl-1-phenylamino-2-imidazolin-5-one] | 147 | – | –
22 | CSC1=NC2(CCCc3ccccc32)C(=O)N1Nc1ccccc1 (stereo not drawn) [Compound 97] | 158 | – | –
23 | CSC1=NC2(CCc3ccccc32)C(=O)N1Nc1ccccc1 (stereo not drawn) [Compound 98] | 85 | – | –
24 | CSC1=NC2(CCCc3ccccc32)C(=O)N1Nc1ccccc1Cl (stereo not drawn) [Compound 104] | 168 | – | –
25 | CC1=NC(C)(c2ccccc2)C(=O)N1Nc1ccccc1 (stereo not drawn) [Compound 201, 2,4-dimethyl-4-phenyl-1-phenylamino-2-imidazolin-5-one] | 135 | – | –
26 | COC1=NC2(CCCc3ccccc32)C(=O)N1Nc1ccccc1 (stereo not drawn) [Compound 407] | – | – | pest or weed control at 1000 µg/mL (Plasmopara viticola): ≥ 75%; pest or weed control at 1000 µg/mL (Puccinia recondita): ≥ 75%
27 | COC1=NC2(CCc3ccccc32)C(=O)N1Nc1ccccc1 (stereo not drawn) [Compound 410] | – | – | pest or weed control at 1000 µg/mL (Plasmopara viticola): ≥ 75%; pest or weed control at 1000 µg/mL (Puccinia recondita): ≥ 75%
28 | COC1=NC(C)(c2cccs2)C(=O)N1Nc1ccccc1 (stereo not drawn) [Compound 486] | – | – | pest or weed control at 1000 µg/mL (Plasmopara viticola): ≥ 75%; pest or weed control at 1000 µg/mL (Puccinia recondita): ≥ 75%
29 | CSC1=N[C@@](C)(c2ccccc2)C(=O)N1Nc1ccccc1 [Compound 501, (+)-(4S)-4-methyl-2-methylthio-4-phenyl-1-phenylamino-2-imidazolin-5-one] | – | 37 ppm | –
30 | CSC1=NC(C)(c2ccccc2)C(=O)N1Nc1ccccc1 (stereo not drawn) [Compound 502] | – | >1000 ppm | –
31 | COC1=N[C@@](C)(c2ccccc2)C(=O)N1Nc1ccccc1 [Compound 503, (+)-(4S)-4-methyl-2-methoxy-4-phenyl-1-phenylamino-2-imidazolin-5-one] | 132 | 110 ppm | –
32 | COC1=NC(C)(c2ccccc2)C(=O)N1Nc1ccccc1 (stereo not drawn) [Compound 504] | 132 | >1000 ppm | –
33 | COC1=NC(C)(c2ccc(Br)cc2)C(=O)N1Nc1ccccc1 (stereo not drawn) [Compound 505] | 202 | 37 ppm | –
34 | COC1=NC(C)(c2ccc(Br)cc2)C(=O)N1Nc1ccccc1 (stereo not drawn) [Compound 506] | – | >1000 ppm | –
35 | CSC1=N[C@@](C)(c2ccc(F)cc2)C(=O)N1Nc1ccccc1 [Compound 511] | – | 12-37 ppm | –
36 | CSC1=N[C@@](C)(c2ccc(F)cc2)C(=O)N1Nc1cccc(F)c1 [Compound 513] | – | 37 ppm | –
